Measured values published in US8435978B2, “Substituted sulfonamide compounds” (Gruenenthal GmbH, priority 2006, dated 2013).

Columns and labels:
B1R receptor of the rat = biological target: T1, B1R receptor of the rat (Rattus norvegicus, UniProt P97583); experiment: Functional study on the bradykinin receptor 1 (B1R), FLIPR Ca2+ assay, rB1R cells; type: cell-based; conditions: CHO-K1, test substance 10 μM, agonist Des-Arg9-bradykinin 100 nM, % inhibition compared with the maximum achievable inhibition, read-out: B1R Antagonism, rat [10 μM] % Inhibition
T1 construct: host or cells: CHO K1 cells (Chinese hamster ovary), stably transfected
T1 sequence (P97583 1-337): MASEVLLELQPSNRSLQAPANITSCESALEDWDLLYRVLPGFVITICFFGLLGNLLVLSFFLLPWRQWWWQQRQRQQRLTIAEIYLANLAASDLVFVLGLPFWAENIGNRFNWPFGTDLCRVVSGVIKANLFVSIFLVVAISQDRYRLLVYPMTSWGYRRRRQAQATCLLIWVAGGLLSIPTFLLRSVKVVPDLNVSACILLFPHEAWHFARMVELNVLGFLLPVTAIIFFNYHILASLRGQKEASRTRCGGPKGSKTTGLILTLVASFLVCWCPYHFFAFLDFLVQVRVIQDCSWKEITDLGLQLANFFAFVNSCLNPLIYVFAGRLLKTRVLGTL
Outline: (§1)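 Readout: peak Fluo-4 Ca2+ fluorescence, FLIPR. Stable CHO K1 hB1R or rB1R cells; cpd 10 μM, 10 min preincubation, then agonist (hB1R: Lys-Des-Arg9-BK 0.5 nM; rB1R: Des-Arg9-BK 100 nM). Value = % inhibition relative to maximal achievable inhibition.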

human B1R receptor = biological target: T2, human B1R receptor (Homo sapiens, UniProt P46663); experiment: Functional study on the bradykinin receptor 1 (B1R), FLIPR Ca2+ assay, hB1R cells; type: cell-based; conditions: CHO-K1, test substance 10 μM, agonist Lys-Des-Arg9-bradykinin 0.5 nM, % inhibition compared with the maximum achievable inhibition, read-out: B1R Antagonism, human [10 μM] % Inhibition
T2 construct: host or cells: CHO K1 cells (Chinese hamster ovary), stably transfected
T2 sequence (P46663 1-353): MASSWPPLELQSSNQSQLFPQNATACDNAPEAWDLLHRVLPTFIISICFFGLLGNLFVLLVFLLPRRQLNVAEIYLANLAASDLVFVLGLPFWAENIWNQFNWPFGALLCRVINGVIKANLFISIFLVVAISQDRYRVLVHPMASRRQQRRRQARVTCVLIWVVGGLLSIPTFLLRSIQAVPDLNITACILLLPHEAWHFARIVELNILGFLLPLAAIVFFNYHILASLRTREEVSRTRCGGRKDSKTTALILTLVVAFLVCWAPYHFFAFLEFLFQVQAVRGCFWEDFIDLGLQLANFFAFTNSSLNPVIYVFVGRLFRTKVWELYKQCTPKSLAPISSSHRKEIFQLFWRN
Outline: as §1

Row | inhibition at 10 µM (B1R receptor of the rat) | inhibition at 10 µM (human B1R receptor) | Compound
1 | 101% | 106% | O=C(COCC1CCCCN1S(=O)(=O)c1c(Cl)cccc1Cl)N1CCCN(Cc2ccccc2)CC1 (stereo not drawn) [Example 529, 1-(4-benzyl-1,4-diazepan-1-yl)-2-((1-(2,6-dichlorophenylsulfonyl)piperidin-2-yl)methoxy)ethanone]
2 | 101% | 93.1% | CC(C)N(Cc1ccc(N(C)C)cc1)C(=O)COCC1CCCCN1S(=O)(=O)c1c(Cl)cccc1Cl (stereo not drawn) [Example 530, 2-((1-(2,6-dichlorophenylsulfonyl)piperidin-2-yl)methoxy)-N-(4-(dimethylamino)benzyl)-N-isopropylacetamide]
3 | 96.2% | 92.6% | COc1cc(C)c(S(=O)(=O)N2CCCC2COCC(=O)N2CCCN(c3ncccc3C#N)CC2)c(C)c1 (stereo not drawn) [Example 531, 2-(4-(2-((1-(4-methoxy-2,6-dimethylphenylsulfonyl)pyrrolidin-2-yl)methoxy)acetyl)-1,4-diazepan-1-yl)nicotinonitrile]
4 | 108% | 96.4% | COc1cc(C)c(S(=O)(=O)N2CCCCC2COCC(=O)N(C)CCN2CCCCC2)c(C)c1 (stereo not drawn) [Example 532, 2-((1-(4-methoxy-2,6-dimethylphenylsulfonyl)piperidin-2-yl)methoxy)-N-methyl-N-(2-(piperidin-1-yl)ethyl)acetamide]
5 | 108% | 106% | COc1cc(C)c(S(=O)(=O)N2CCCCC2COCC(=O)N2CCC(CCN3CCCCC3)CC2)c(C)c1 (stereo not drawn) [Example 533, 2-((1-(4-methoxy-2,6-dimethylphenylsulfonyl)piperidin-2-yl)methoxy)-1-(4-(2-(piperidin-1-yl)ethyl)piperidin-1-yl)ethanone]
6 | 107% | 104% | COc1cc(C)c(S(=O)(=O)N2CCCCC2COCC(=O)N2CCCCC2CCN2CCOCC2)c(C)c1 (stereo not drawn) [Example 534, 2-((1-(4-methoxy-2,6-dimethylphenylsulfonyl)piperidin-2-yl)methoxy)-1-(2-(2-morpholinoethyl)piperidin-1-yl)ethanone]
7 | 107% | 48.4% | COc1cc(C)c(S(=O)(=O)N2CCCCC2COCC(=O)Nc2cc(C)[nH]n2)c(C)c1 (stereo not drawn) [Example 535, 2-((1-(4-methoxy-2,6-dimethylphenylsulfonyl)piperidin-2-yl)methoxy)-N-(5-methyl-1H-pyrazol-3-yl)acetamide]
8 | 107% | 63.1% | COc1cc(C)c(S(=O)(=O)N2CCCCC2COCC(=O)Nc2cc(-c3ccccc3)[nH]n2)c(C)c1 (stereo not drawn) [Example 536, 2-((1-(4-methoxy-2,6-dimethylphenylsulfonyl)piperidin-2-yl)methoxy)-N-(5-phenyl-1H-pyrazol-3-yl)acetamide]
9 | 98.7% | 12.5% | COc1cc(C)c(S(=O)(=O)N2CCCCC2COCC(=O)Nc2cc(-c3ccc(Cl)cc3)n[nH]2)c(C)c1 (stereo not drawn) [Example 537, N-(3-(4-chlorophenyl)-1H-pyrazol-5-yl)-2-((1-(4-methoxy-2,6-dimethylphenylsulfonyl)piperidin-2-yl)methoxy)acetamide]
10 | 106% | -11.8% | COc1cc(C)c(S(=O)(=O)N2CCCCC2COCC(=O)Nc2[nH]ncc2-c2ccc(OC)c(OC)c2)c(C)c1 (stereo not drawn) [Example 538, N-(4-(3,4-dimethoxyphenyl)-1H-pyrazol-5-yl)-2-((1-(4-methoxy-2,6-dimethylphenylsulfonyl)piperidin-2-yl)methoxy)acetamide]
11 | 107% | 38.8% | COc1cc(C)c(S(=O)(=O)N2CCCCC2COCC(=O)Nc2cc(-c3cccs3)n[nH]2)c(C)c1 (stereo not drawn) [Example 539, 2-((1-(4-methoxy-2,6-dimethylphenylsulfonyl)piperidin-2-yl)methoxy)-N-(3-(thiophen-2-yl)-1H-pyrazol-5-yl)acetamide]
12 | 100% | 7.17% | COc1cc(C)c(S(=O)(=O)N2CCCCC2COCC(=O)Nc2cc(-c3ccccc3OC)[nH]n2)c(C)c1 (stereo not drawn) [Example 540, 2-((1-(4-methoxy-2,6-dimethylphenylsulfonyl)piperidin-2-yl)methoxy)-N-(5-(2-methoxyphenyl)-1H-pyrazol-3-yl)acetamide]
13 | 108% | 103% | COc1cccc(-c2cc(NC(=O)COCC3CCCCN3S(=O)(=O)c3c(C)cc(OC)cc3C)n[nH]2)c1 (stereo not drawn) [Example 541, 2-((1-(4-methoxy-2,6-dimethylphenylsulfonyl)piperidin-2-yl)methoxy)-N-(5-(3-methoxyphenyl)-1H-pyrazol-3-yl)acetamide]
14 | 107% | 49.2% | COc1cc(C)c(S(=O)(=O)N2CCCCC2COCC(=O)Nc2cc(-c3cccc(F)c3)[nH]n2)c(C)c1 (stereo not drawn) [Example 542, N-(5-(3-fluorophenyl)-1H-pyrazol-3-yl)-2-((1-(4-methoxy-2,6-dimethylphenylsulfonyl)piperidin-2-yl)methoxy)acetamide]
15 | 105% | 21.1% | COc1ccc(-c2cc(NC(=O)COCC3CCCCN3S(=O)(=O)c3c(C)cc(OC)cc3C)n[nH]2)cc1 (stereo not drawn) [Example 543, 2-((1-(4-methoxy-2,6-dimethylphenylsulfonyl)piperidin-2-yl)methoxy)-N-(5-(4-methoxyphenyl)-1H-pyrazol-3-yl)acetamide]
16 | 107% | 11.7% | COc1cc(C)c(S(=O)(=O)N2CCCCC2COCC(=O)Nc2cc(-c3ccc(C)cc3)n[nH]2)c(C)c1 (stereo not drawn) [Example 544, 2-((1-(4-methoxy-2,6-dimethylphenylsulfonyl)piperidin-2-yl)methoxy)-N-(3-p-tolyl-1H-pyrazol-5-yl)acetamide]
17 | 106% | 39.8% | COc1cc(C)c(S(=O)(=O)N2CCCCC2COCC(=O)Nc2cc(-c3ccccc3)n[nH]2)c(C)c1 (stereo not drawn) [Example 545, 2-((1-(4-methoxy-2,6-dimethylphenylsulfonyl)piperidin-2-yl)methoxy)-N-(3-phenyl-1H-pyrazol-5-yl)acetamide]
18 | 104% | 7.44% | COc1cc(C)c(S(=O)(=O)N2CCCCC2COCC(=O)Nc2ccc3ccccc3n2)c(C)c1 (stereo not drawn) [Example 546, 2-((1-(4-methoxy-2,6-dimethylphenylsulfonyl)piperidin-2-yl)methoxy)-N-(quinolin-2-yl)acetamide]
19 | 100% | 77.4% | COc1ccc(S(=O)(=O)N2c3ccccc3CC2COCC(=O)N2CCC(CCN3CCCCC3)CC2)cc1 (stereo not drawn) [Example 547, 2-((1-(4-methoxyphenylsulfonyl)indolin-2-yl)methoxy)-1-(4-(2-(piperidin-1-yl)ethyl)piperidin-1-yl)ethanone]
20 | 95.4% | 24.7% | COc1ccc(S(=O)(=O)N2c3ccccc3CC2COCC(=O)N2CCN(CCn3c(C)ccc3C)CC2)cc1 (stereo not drawn) [Example 548, 1-(4-(2-(2,5-dimethyl-1H-pyrrol-1-yl)ethyl)piperazin-1-yl)-2-((1-(4-methoxyphenylsulfonyl)indolin-2-yl)methoxy)ethanone]
21 | 99% | 75.8% | O=C(COCC1CCCCN1S(=O)(=O)c1c(Cl)cccc1Cl)NCc1ccc(CN2CCOCC2)cc1 (stereo not drawn) [Example 549, 2-((1-(2,6-dichlorophenylsulfonyl)piperidin-2-yl)methoxy)-N-(4-(morpholinomethyl)benzyl)acetamide]
22 | 101% | 57.8% | O=C(COCC1CCCCN1S(=O)(=O)c1c(Cl)cccc1Cl)N1CCN(c2ccc(C(F)(F)F)cc2)CC1 (stereo not drawn) [Example 550, 2-((1-(2,6-dichlorophenylsulfonyl)piperidin-2-yl)methoxy)-1-(4-(4-(trifluoromethyl)phenyl)piperazin-1-yl)ethanone]
23 | 102% | 52.7% | O=C(COCC1CCCCN1S(=O)(=O)c1c(Cl)cccc1Cl)N1CCN(c2ncc(Cl)cc2Cl)CC1 (stereo not drawn) [Example 551, 2-((1-(2,6-dichlorophenylsulfonyl)piperidin-2-yl)methoxy)-1-(4-(3,5-dichloropyridin-2-yl)piperazin-1-yl)ethanone]
24 | 101% | 46.8% | O=C(COCC1CCCCN1S(=O)(=O)c1c(Cl)cccc1Cl)N1CCN(CCO)CC1 (stereo not drawn) [Example 552, 2-((1-(2,6-dichlorophenylsulfonyl)piperidin-2-yl)methoxy)-1-(4-(2-hydroxyethyl)piperazin-1-yl)ethanone]
